Measured values as given in PubChem BioAssay (NCI).
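Grown in 96-well plates, cells were treated for 48 hours with each compound at five concentrations. Insufficient inhibition: endpoint recorded as highest concentration tested. GI50 = concentration required for 50% inhibition of growth. TGI: concentration producing complete growth inhibition.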

Key:
Experiment in all cases: growth of human tumour cells (NCI), 48 h
786-0 renal = test system: 786-0 renal
A498 renal = test system: A498 renal
A549 NSCLC = test system: A549 NSCLC
ACHN renal = test system: ACHN renal
BT-549 breast = test system: BT-549 breast
CAKI-1 renal = test system: CAKI-1 renal
CCRF-CEM leukemia = test system: CCRF-CEM leukemia
COLO 205 colon = test system: COLO 205 colon
DU-145 prostate = test system: DU-145 prostate
EKVX NSCLC = test system: EKVX NSCLC
HCC-2998 colon = test system: HCC-2998 colon
HCT-116 colon = test system: HCT-116 colon
HCT-15 colon = test system: HCT-15 colon
HL-60(TB) leukemia = test system: HL-60(TB) leukemia
HOP-62 NSCLC = test system: HOP-62 NSCLC
HOP-92 NSCLC = test system: HOP-92 NSCLC
HS 578T breast = test system: HS 578T breast
HT29 colon = test system: HT29 colon
IGROV1 ovarian = test system: IGROV1 ovarian
K-562 leukemia = test system: K-562 leukemia
KM12 colon = test system: KM12 colon
LOX IMVI melanoma = test system: LOX IMVI melanoma
M14 melanoma = test system: M14 melanoma
MALME-3M melanoma = test system: MALME-3M melanoma
MCF7 breast = test system: MCF7 breast
MDA-MB-231 breast = test system: MDA-MB-231 breast
MDA-MB-435 = test system: MDA-MB-435
MOLT-4 leukemia = test system: MOLT-4 leukemia
NCI-H226 lung = test system: NCI-H226 lung
NCI-H23 lung = test system: NCI-H23 lung
NCI-H460 lung = test system: NCI-H460 lung
NCI-H522 lung = test system: NCI-H522 lung
NCI/ADR-RES ovarian = test system: NCI/ADR-RES ovarian
OVCAR-3 ovarian = test system: OVCAR-3 ovarian
OVCAR-4 ovarian = test system: OVCAR-4 ovarian
OVCAR-5 ovarian = test system: OVCAR-5 ovarian
OVCAR-8 ovarian = test system: OVCAR-8 ovarian
PC-3 prostate = test system: PC-3 prostate
RPMI-8226 leukemia = test system: RPMI-8226 leukemia
RXF 393 renal = test system: RXF 393 renal
SF-268 CNS = test system: SF-268 CNS
SF-295 CNS = test system: SF-295 CNS
SF-539 CNS = test system: SF-539 CNS
SK-MEL-2 melanoma = test system: SK-MEL-2 melanoma
SK-MEL-28 melanoma = test system: SK-MEL-28 melanoma
SK-MEL-5 melanoma = test system: SK-MEL-5 melanoma
SK-OV-3 ovarian = test system: SK-OV-3 ovarian
SN12C renal = test system: SN12C renal
SNB-19 CNS = test system: SNB-19 CNS
SNB-75 CNS = test system: SNB-75 CNS
SR leukemia = test system: SR leukemia
SW-620 colon = test system: SW-620 colon
T-47D breast = test system: T-47D breast
TK-10 renal = test system: TK-10 renal
U251 CNS = test system: U251 CNS
UACC-257 melanoma = test system: UACC-257 melanoma
UACC-62 melanoma = test system: UACC-62 melanoma
UO-31 renal = test system: UO-31 renal

SMILES: CN1CCN(Cc2ccc(NC(=O)c3cncc(C#Cc4cnc5ccc(NCCO)nn45)c3)cc2C(F)(F)F)CC1
- GI50 (786-0 renal): 853 nM
- TGI (786-0 renal): 2030 nM
- GI50 (A498 renal): 385 nM
- TGI (A498 renal): 946 nM
- GI50 (A549 NSCLC): 718 nM
- TGI (A549 NSCLC): 4650 nM
- GI50 (ACHN renal): 1700 nM
- TGI (ACHN renal): 5860 nM
- GI50 (BT-549 breast): 824 nM
- TGI (BT-549 breast): 1620 nM
- GI50 (CAKI-1 renal): 764 nM
- TGI (CAKI-1 renal): 3470 nM
- GI50 (CCRF-CEM leukemia): 31 nM
- TGI (CCRF-CEM leukemia): 17800 nM
- GI50 (COLO 205 colon): 111 nM
- TGI (COLO 205 colon): 306 nM
- GI50 (DU-145 prostate): 486 nM
- TGI (DU-145 prostate): 3470 nM
- GI50 (EKVX NSCLC): 673 nM
- TGI (EKVX NSCLC): 4010 nM
- GI50 (HCC-2998 colon): 687 nM
- TGI (HCC-2998 colon): 3200 nM
- GI50 (HCT-116 colon): 92.1 nM
- TGI (HCT-116 colon): 675 nM
- GI50 (HCT-15 colon): 1650 nM
- TGI (HCT-15 colon): 6490 nM
- GI50 (HL-60(TB) leukemia): 138 nM
- TGI (HL-60(TB) leukemia): 609 nM
- GI50 (HOP-62 NSCLC): 324 nM
- TGI (HOP-62 NSCLC): 1420 nM
- GI50 (HOP-92 NSCLC): 19 nM
- TGI (HOP-92 NSCLC): 87.4 nM
- GI50 (HS 578T breast): 115 nM
- TGI (HS 578T breast): 863 nM
- GI50 (HT29 colon): 188 nM
- TGI (HT29 colon): 1430 nM
- GI50 (IGROV1 ovarian): 239 nM
- TGI (IGROV1 ovarian): 2440 nM
- GI50 (K-562 leukemia): 5 nM
- TGI (K-562 leukemia): 794 nM
- GI50 (KM12 colon): 5 nM
- TGI (KM12 colon): 1300 nM
- GI50 (LOX IMVI melanoma): 179 nM
- TGI (LOX IMVI melanoma): 769 nM
- GI50 (M14 melanoma): 231 nM
- TGI (M14 melanoma): 864 nM
- GI50 (MALME-3M melanoma): 135 nM
- TGI (MALME-3M melanoma): 635 nM
- GI50 (MCF7 breast): 90.3 nM
- TGI (MCF7 breast): 787 nM
- GI50 (MDA-MB-231 breast): 79.5 nM
- TGI (MDA-MB-231 breast): 335 nM
- GI50 (MDA-MB-435): 123 nM
- TGI (MDA-MB-435): 919 nM
- GI50 (MOLT-4 leukemia): 141 nM
- TGI (MOLT-4 leukemia): 3860 nM
- GI50 (NCI-H226 lung): 75.8 nM
- TGI (NCI-H226 lung): 1310 nM
- GI50 (NCI-H23 lung): 277 nM
- TGI (NCI-H23 lung): 1310 nM
- GI50 (NCI-H460 lung): 209 nM
- TGI (NCI-H460 lung): 718 nM
- GI50 (NCI-H522 lung): 187 nM
- TGI (NCI-H522 lung): 940 nM
- GI50 (NCI/ADR-RES ovarian): 30100 nM
- TGI (NCI/ADR-RES ovarian): 50000 nM
- GI50 (OVCAR-3 ovarian): 349 nM
- TGI (OVCAR-3 ovarian): 2060 nM
- GI50 (OVCAR-4 ovarian): 378 nM
- TGI (OVCAR-4 ovarian): 2100 nM
- GI50 (OVCAR-5 ovarian): 342 nM
- TGI (OVCAR-5 ovarian): 4330 nM
- GI50 (OVCAR-8 ovarian): 698 nM
- TGI (OVCAR-8 ovarian): 4050 nM
- GI50 (PC-3 prostate): 457 nM
- TGI (PC-3 prostate): 3920 nM
- GI50 (RPMI-8226 leukemia): 1010 nM
- TGI (RPMI-8226 leukemia): 2970 nM
- GI50 (RXF 393 renal): 590 nM
- TGI (RXF 393 renal): 1350 nM
- GI50 (SF-268 CNS): 207 nM
- TGI (SF-268 CNS): 1110 nM
- GI50 (SF-295 CNS): 717 nM
- TGI (SF-295 CNS): 4940 nM
- GI50 (SF-539 CNS): 61.6 nM
- TGI (SF-539 CNS): 596 nM
- GI50 (SK-MEL-2 melanoma): 131 nM
- TGI (SK-MEL-2 melanoma): 435 nM
- GI50 (SK-MEL-28 melanoma): 529 nM
- TGI (SK-MEL-28 melanoma): 1740 nM
- GI50 (SK-MEL-5 melanoma): 797 nM
- TGI (SK-MEL-5 melanoma): 1830 nM
- GI50 (SK-OV-3 ovarian): 805 nM
- TGI (SK-OV-3 ovarian): 3200 nM
- GI50 (SN12C renal): 172 nM
- TGI (SN12C renal): 2630 nM
- GI50 (SNB-19 CNS): 901 nM
- TGI (SNB-19 CNS): 3990 nM
- GI50 (SNB-75 CNS): 87.4 nM
- TGI (SNB-75 CNS): 414 nM
- GI50 (SR leukemia): 58.4 nM
- TGI (SR leukemia): 1360 nM
- GI50 (SW-620 colon): 118 nM
- TGI (SW-620 colon): 580 nM
- GI50 (T-47D breast): 603 nM
- TGI (T-47D breast): 4220 nM
- GI50 (TK-10 renal): 1200 nM
- TGI (TK-10 renal): 2990 nM
- GI50 (U251 CNS): 609 nM
- TGI (U251 CNS): 1450 nM
- GI50 (UACC-257 melanoma): 608 nM
- TGI (UACC-257 melanoma): 2230 nM
- GI50 (UACC-62 melanoma): 532 nM
- TGI (UACC-62 melanoma): 1620 nM
- GI50 (UO-31 renal): 2000 nM
- TGI (UO-31 renal): 6880 nM
